The results in this text go back to ChEMBL document CHEMBL4400569, “The discovery of quinoline-3-carboxamides as hematopoietic prostaglandin D synthase (H-PGDS) inhibitors” (Bioorg Med Chem, 2019).

Broadly, the half-life is the time in which the quantity being followed falls by half. High values mean slow loss, low ones fast loss. One may read the Papp as a coefficient for how fast a substance crosses the barrier. As a reminder, the ED50 is the dose that gives a 50% effect, or the effect in half of the subjects. Higher therefore signals weaker potency. Broadly, the solubility is the concentration that dissolves in the medium under given conditions. Broadly, the clearance is a measure of how efficiently the substance is removed, as volume per time. Usually bioavailability stands for the share of a dose that reaches the circulation, judged against a reference dose that is usually intravenous. Higher therefore signals good availability.

A short description of series [1]: Stability in human whole blood assessed as amidase-mediated carboxylic acid formation by measuring parent compound remaining measured after 1 hr. The class given is ADME, tissue-based.
A short description of series [2]: Half life in mouse liver microsomes at 0.5 mM preincubated for 5 mins followed by NADP addition and measured after LC-MS/MS analysis. The class given is ADME, Microsome. A general note: Microsomes from liver hold many membrane-bound enzymes, among them those of drug oxidation.
Series [3] can be described thus: Apparent permeability of the compound at 2.5 uL at pH 7.4 incubated for 3 hrs under shaking condition by PAMPA. The format is ADME. In general terms: In PAMPA a lipid-coated filter parts donor from acceptor wells.
A short description of series [4]: Terminal half life in mouse. The class given is ADME, organism-based. Conditions: in vivo.
A short description of series [5]: Dose normalized AUC in po dosed mouse. The format is ADME, organism-based. Conditions: in vivo.
The next series is filed under the species Mus musculus. Kind of series: animal or person. Conditions: C57BL/6J, po.
Series [6] can be described thus: Solubility of the compound in FaSSIF by HPLC analysis. The format is physicochemical.
Series [7] can be described thus: Clearance in iv dosed mouse. The conditions noted are these: in vivo. The format is ADME, organism-based.
Series [8] can be described thus: Volume of distribution at steady state in mouse. The format is ADME, organism-based. The conditions noted are these: in vivo, read-out: Vdss.
Series [9] can be described thus: Oral bioavailability in mouse. The format is ADME, organism-based. The conditions noted are these: in vivo.

In brackets after ≈: the same amount, converted by molar mass. A value given as a limit tells only on which side of the number the result lay.

Regarding `COc1ccc2cc(C(=O)N[C@H]3CCNC3=O)cnc2c1`, the Stability in series [1] was 100%.
On to `CC(C)(O)[C@H]1CC[C@H](NC(=O)c2cnc3cc(OC(F)F)ccc3c2)CC1`, for which, in series [2], the half-life is > 3 h. Besides, the Papp at 3 h in series [3] came out at 24 ×10⁻⁶ cm/s. In series [4], this compound registered a beta t1/2 of 3.8 h. Moreover, the AUC/dose in [5] worked out at 1800 ng·h/mL per mg/kg. For the same compound, the ED50 in the series filed under Mus musculus turned out to be 0.032 mg/kg.
Turning to `COc1ccc2cc(C(=O)N[C@H]3CC[C@H](C(C)(C)O)CC3)cnc2c1`, the half-life in series [2] came out at 0.633 h.
On to `COc1ccc2cc(C(=O)NC(C)(C)C)cnc2c1`, for which the Stability in series [1] was found to be 1%.
Turning to `CC(C)(O)[C@H]1CC[C@H](NC(=O)c2cnc3cc(OC(F)(F)F)ccc3c2)CC1`, the half-life was > 3 h in series [2] and 7.9 h in series [4]. Further, in [3], the Papp at 3 h turned out to be 47 ×10⁻⁶ cm/s. In series [6], this compound returned a solubility of 16 µg/mL (≈ 40.4 µM). This compound yielded a clearance in [7] of 3.8 mL/min/kg. Besides, the Vd in series [8] is 2.5 L/kg. The same compound gave a bioavailability in [9] of 46%. Also, the AUC/dose in [5] amounted to 1900 ng·h/mL per mg/kg.
On to `COc1ccc2cc(C(=O)Nc3cc[nH]n3)cnc2c1`, for which the Stability in [1] turned out to be 93%.
On the same count and under the same terms, next, `COc1ccc2cc(C(=O)Nc3cn[nH]c3)cnc2c1`: 63%.
